In patent US20250066288A1, “DIHYDRAZIDE-DIHYDRAZONE COMPOUNDS WITH ADAMANTYL MOIETY AND A PROCESS FOR SYNTHESIS OF THE SAME” (priority 2022, published 2025):
Where two headings read alike, the source gives them in different places.

Legend:
[1] = test system: Candida Albicans (ATCC 10231); assay: Antimicrobial activity test by tube dilution method, fungi; type: cell-based; details: for killing at 50000 µg/mL: Candida albicans, ATCC10231, 0.05 h, read-out: C. albicans % killing
Description: (§1) The antimicrobial activity of the compounds was determined by tube dilution method. Powdery compounds were taken in closed glass vials and were tested against Staphylococcus aureus (ATCC 6538) (bacteria) and Candida Albicans (ATCC 10231) (Fungi). 50 mg of the sample was taken in 1 ml of DMSO and the contact time for the sample was maintained as 3 minutes. The medium for microorganisms was Soyabean Casein Digest Agar for bacteria and Sabouraud's Dextrose Agar for fungi. The incubation time for bacteria was 2 days at 30-35° C. while for fungi was 3-5 days at 20-25° C.

[2] = test system: Staphylococcus aureus (ATCC 6538); assay: Antimicrobial activity test by tube dilution method, bacteria; type: cell-based; details: for killing at 50000 µg/mL: Staphylococcus aureus, ATCC6538, 0.05 h, read-out: S. aureus % killing
Description: as §1

[3] = 50 mg sample in 1 ml DMSO, contact time 3 minutes, Sabouraud's Dextrose Agar, 3-5 days at 20-25° C.
[4] = 50 mg sample in 1 ml DMSO, contact time 3 minutes, Soyabean Casein Digest Agar, 2 days at 30-35° C.

Structure (SMILES) | C. albicans Final Count [1, 3] | killing at 50000 µg/mL [1, 3] | S. aureus Final Count [2, 4] | killing at 50000 µg/mL [2, 4] | killing at 50000 µg/mL [1] | killing at 50000 µg/mL [2] | C. albicans % killing [1, 3] | S. aureus % killing [2, 4]
Cc1ccc(/C=N/NC(=O)C23CC4CC(C2)CC(C(=O)N/N=C/c2ccc(C)cc2)(C4)C3)cc1 [Compound 5i, Bis[N′-(4-methyl)benzylidene]adamantane-1,3-dicarbohydrazide] | 0 | 100% | 3120000 | 85% | – | – | – | –
CCOc1ccc(/C(C)=N\NC(=O)C23CC4CC(C2)CC(C(=O)N/N=C(\C)c2ccc(OCC)cc2)(C4)C3)cc1 [Compound 5e, Bis [N′-(1-(4-ethoxy)ethylidene)]adamantane-1,3-dicarbohydrazide] | 0 | 100% | 16400000 | 16.8% | – | – | – | –
O=C(N/N=C/c1ccc(O)cc1)C12CC3CC(C1)CC(C(=O)N/N=C/c1ccc(O)cc1)(C3)C2 [Compound 5j, Bis[N′-(4-hydroxy)benzylidene]adamantane-1,3-dicarbohydrazide] | 0 | 100% | 550000 | 97.2% | – | – | – | –
O=C(N/N=C\c1cccs1)C12CC3CC(C1)CC(C(=O)N/N=C/c1cccs1)(C3)C2 [Compound 5m] | 0 | 100% | 1230000 | 93.4% | – | – | – | –
COc1cc(/C=N\NC(=O)C23CC4CC(C2)CC(C(=O)N/N=C/c2ccc(O)c(OC)c2)(C4)C3)ccc1O [Compound 5b, Bis [N′-(3-methoxy, 4-hydroxy)benzylidene]adamantane-1,3-dicarbohydrazide] | 0 | 100% | 1680000 | 90.3% | – | – | – | –
O=C(N/N=C/c1ccc([N+](=O)[O-])o1)C12CC3CC(C1)CC(C(=O)N/N=C/c1ccc([N+](=O)[O-])o1)(C3)C2 [Compound 5g] | 0 | – | 10 | – | 100% | 100% | – | –
C/C(=N\NC(=O)C12CC3CC(C1)CC(C(=O)N/N=C(\C)c1ccc(O)cc1)(C3)C2)c1ccc(O)cc1 [Compound 5k, Bis[N′-(1-(4-hydroxyphenyl)ethylidene)]adamantane-1,3-dicarbohydrazide] | 0 | 100% | 7500000 | 60.3% | – | – | – | –
CCOc1ccc(/C=N/NC(=O)C23CC4CC(C2)CC(C(=O)N/N=C/c2ccc(OCC)cc2)(C4)C3)cc1 [Compound 5n, Bis[N′-(4-ethoxy)benzylidene]adamantane-1,3-dicarbohydrazide] | 0 | 100% | 10 | 100% | – | – | – | –
O=C(N/N=C\c1ccc2ccccc2c1)C12CC3CC(C1)CC(C(=O)N/N=C/c1ccc4ccccc4c1)(C3)C2 [Compound 5f] | 0 | 100% | 16000000 | 20.4% | – | – | – | –
O=C(N/N=C/c1ccc(Br)cc1)C12CC3CC(C1)CC(C(=O)N/N=C/c1ccc(Br)cc1)(C3)C2 [Compound 5p, Bis[N′-(4-bromo)benzylidene]adamantane-1,3-dicarbohydrazide] | 0 | 100% | 2310000 | 88.7% | – | – | – | –
C/C(=N/NC(=O)C12CC3CC(C1)CC(C(=O)N/N=C(\C)c1cc(C)ccc1O)(C3)C2)c1cc(C)ccc1O [Compound 5c, Bis [N′-(1-(2-hydroxy, 5-methyl phenyl)ethylidene)]adamantane-1,3-dicarbohydrazide] | 10 | 100% | 2980000 | 82.9% | – | – | – | –
COc1ccc(/C=N/NC(=O)C23CC4CC(C2)CC(C(=O)N/N=C/c2ccc(OC)cc2)(C4)C3)cc1 [Compound 5q, Bis[N′-(4-methoxy)benzylidene]adamantane-1,3-dicarbohydrazide] | 0 | 100% | 14400000 | 26.1% | – | – | – | –
COc1cc(/C=N/NC(=O)C23CC4CC(C2)CC(C(=O)N/N=C/c2cc(Br)c(O)c(OC)c2)(C4)C3)cc(Br)c1O [Compound 5l, Bis[N′-(3-bromo,4hydroxy,5-methoxy)benzylidene]adamantane-1,3-dicarbohydrazide] | 0 | 100% | 0 | 100% | – | – | – | –
O=C(NN=Cc1ccc(Cl)c([N+](=O)[O-])c1)C12CC3CC(C1)CC(C(=O)NN=Cc1ccc(Cl)c([N+](=O)[O-])c1)(C3)C2 [Compound 5o, Bis[N′-(3-nitro,4-chloro)benzylidene]adamantane-1,3-dicarbohydrazide] | 0 | – | 18400000 | – | – | – | 100.00% | 9.36%
CC(=NNC(=O)C12CC3CC(C1)CC(C(=O)NN=C(C)c1ccc(Cl)c([N+](=O)[O-])c1)(C3)C2)c1ccc(Cl)c([N+](=O)[O-])c1 [Compound 5r, Bis[N′-(1-(3-nitro,4-chloro)ethylidene)]adamantane-1,3-dicarbohydrazide] | 0 | – | 5100000 | – | – | – | 100.00% | 74.24%
COc1cc(/C=N\NC(=O)C23CC4CC(C2)CC(C(=O)N/N=C/c2cc(OC)c(O)c([N+](=O)[O-])c2)(C4)C3)cc([N+](=O)[O-])c1O [Compound 5h, Bis [N′-(3-nitro, 4-hydroxy, 5-methoxy)benzylidene]adamantane-1,3-dicarbohydrazide] | 0 | – | 0 | – | 100% | 100% | – | –
COc1ccc(/C=N\NC(=O)C23CC4CC(C2)CC(C(=O)N/N=C/c2ccc(OC)c(OC)c2)(C4)C3)cc1OC [Compound 5d] | 0 | 100% | 10300000 | 50.2% | – | – | – | –
O=C(N/N=C\c1ccc([N+](=O)[O-])cc1)C12CC3CC(C1)CC(C(=O)N/N=C/c1ccc([N+](=O)[O-])cc1)(C3)C2 [Compound 5a, Bis [N′-(4-nitro)benzylidene]adamantane-1,3-dicarbohydrazide] | 0 | – | 0 | – | 100% | 100% | – | –
